Results reported in PubChem BioAssay (NCI).
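Each compound was tested at five concentrations against cells in 96-well plates for 48 hours. GI50 marks 50% less growth. TGI: concentration producing complete growth inhibition.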

system: HOP-18 NSCLC; test: growth of human tumour cells (NCI), 48 h

Structure (SMILES)	TGI [µM]	GI50 [µM]
COc1cc(Nc2cnc3ccc(C(F)(F)F)cc3n2)cc(OC)c1OC	> 100	
O=C1[C@@H]2C(c3c(Cl)cccc3Cl)=NO[C@@H]2C(=O)N1c1ccc(Cc2ccc(N3C(=O)[C@H]4C(c5c(Cl)cccc5Cl)=NO[C@H]4C3=O)cc2)cc1	> 100	
O=C1NC2=C(CCCCC/C2=N\O)C12CCCCCC2	> 100	
CCc1cccc(C)c1NC(=O)CCc1nc(=S)[nH][nH]1	> 100	
COC1N(C2CC(O)C(CO)O2)C(=O)NC(=O)C1(F)Br (stereo not given)	> 50	
N#CC(C(=O)C(=O)Nc1c(Cl)cccc1Cl)c1ccccc1 (stereo not given)	> 100	> 100
COC(=O)C1C(C(=O)OC)C2C(=O)C3C(C(=O)OC)C(C(=O)OC)C3C(=O)C12 (stereo not given)	> 100	
O=C(NC12CC3CCC1CC(C3)C2)[C@@H]1CCCN1C(=O)OCc1ccccc1 (stereo not given in full)	> 100	
O=C1NC(=O)c2c1n(Cc1ccccc1)c(=O)n2Cc1ccccc1	> 100	
Cc1nc(N)nc(CCC(=O)Nc2cccc(C(F)(F)F)c2)c1-c1ccc(Cl)cc1	> 100	
COc1cc([C@@H]2c3cc4c(cc3[C@@H](NC(=O)c3ccc(C#N)cc3)C3COC(=O)[C@@H]32)OCO4)cc(OC)c1O (stereo not given in full)	> 100	
O=[N+]([O-])c1cccc(C2=NN(c3ccccc3)C3c4cc(Br)ccc4OCC23)c1 (stereo not given)	> 100	
COc1cc2oc(-c3ccc(O)cc3)cc(=O)c2c(O)c1C1OC(CO)C(O)C(O)C1O (stereo not given)	> 100	
C[C@]12Cc3cn[nH]c3C(=O)C1CC[C@@H]1C2CC[C@@]2(C)C1CC[C@@H]2O (stereo not given in full)	> 100	
NNC(=O)C(=O)N/N=C1/CCCC1C(=O)CCC(=O)Nc1ccc(Cl)cc1 (stereo not given)	> 100	
COC(=O)CCC(NC(=S)N/N=C/c1cccs1)C(=O)OC (stereo not given)	> 100	
O=c1/c(=C/c2ccccc2[N+](=O)[O-])sc2nnc(-c3cccnc3)n12	> 100	
COC(=O)/C=C(/C(=O)OC)C1(C)c2cc(C(=O)OC)c(C(=O)OC)c(N)c2C(=N)N1c1ccccc1 (stereo not given)	62	
O=C1/C(=C\c2ccccc2)CN(C(=O)CCN2CCCCC2)C/C1=C/c1ccccc1	7.37	
Cc1ccc(S(=O)(=O)OCC/C(=C\[Si](C)(C)C)c2ccccc2)cc1	> 100	
CCc1ccccc1NC(=O)c1cccc([N+](=O)[O-])c1O	> 100	
O=C(NC1C(=O)NNC1c1cccc([N+](=O)[O-])c1)c1ccccc1 (stereo not given)	> 100	
CC1=C(C(=O)Nc2ccccc2)C(c2ccc(N(C)C)cc2)C(C(=O)Nc2ccccc2)=C(C)N1	> 100	

system: LXFL 529 NSCLC; test: growth of human tumour cells (NCI), 48 h

Structure (SMILES)	TGI [µM]	GI50 [µM]
Cc1nc2ccccc2nc1CC(=O)C(=O)Nc1ccc(Cl)cc1Cl	> 100	
COc1cc(Nc2cnc3ccc(C(F)(F)F)cc3n2)cc(OC)c1OC	> 100	
O=C1[C@@H]2C(c3c(Cl)cccc3Cl)=NO[C@@H]2C(=O)N1c1ccc(Cc2ccc(N3C(=O)[C@H]4C(c5c(Cl)cccc5Cl)=NO[C@H]4C3=O)cc2)cc1	> 100	
O=C1NC2=C(CCCCC/C2=N\O)C12CCCCCC2	> 100	
CCc1cccc(C)c1NC(=O)CCc1nc(=S)[nH][nH]1	> 100	
N#C/C(=C\c1cc(OCc2ccccc2)c(OCc2ccccc2)cn1)C(N)=O	> 100	
COC1N(C2CC(O)C(CO)O2)C(=O)NC(=O)C1(F)Br (stereo not given)	50	
N#CC(C(=O)C(=O)Nc1c(Cl)cccc1Cl)c1ccccc1 (stereo not given)	> 100	> 100
COC(=O)C1C(C(=O)OC)C2C(=O)C3C(C(=O)OC)C(C(=O)OC)C3C(=O)C12 (stereo not given)	> 100	
O=C(NC12CC3CCC1CC(C3)C2)[C@@H]1CCCN1C(=O)OCc1ccccc1 (stereo not given in full)	> 100	
O=C1NC(=O)c2c1n(Cc1ccccc1)c(=O)n2Cc1ccccc1	> 100	
Cc1nc(N)nc(CCC(=O)Nc2cccc(C(F)(F)F)c2)c1-c1ccc(Cl)cc1	> 100	
COc1cc([C@@H]2c3cc4c(cc3[C@@H](NC(=O)c3ccc(C#N)cc3)C3COC(=O)[C@@H]32)OCO4)cc(OC)c1O (stereo not given in full)	> 100	
O=[N+]([O-])c1cccc(C2=NN(c3ccccc3)C3c4cc(Br)ccc4OCC23)c1 (stereo not given)	> 100	
COc1cc2oc(-c3ccc(O)cc3)cc(=O)c2c(O)c1C1OC(CO)C(O)C(O)C1O (stereo not given)	> 100	
C[C@]12Cc3cn[nH]c3C(=O)C1CC[C@@H]1C2CC[C@@]2(C)C1CC[C@@H]2O (stereo not given in full)	> 100	
NNC(=O)C(=O)N/N=C1/CCCC1C(=O)CCC(=O)Nc1ccc(Cl)cc1 (stereo not given)	> 100	
COC(=O)CCC(NC(=S)N/N=C/c1cccs1)C(=O)OC (stereo not given)	> 100	
O=c1/c(=C/c2ccccc2[N+](=O)[O-])sc2nnc(-c3cccnc3)n12	> 100	
COC(=O)/C=C(/C(=O)OC)C1(C)c2cc(C(=O)OC)c(C(=O)OC)c(N)c2C(=N)N1c1ccccc1 (stereo not given)	38.6	
CCOC(=O)c1nc(C)oc1C(F)(F)F	> 100	
O=C1/C(=C\c2ccccc2)CN(C(=O)CCN2CCCCC2)C/C1=C/c1ccccc1	3.05	
Cc1ccc(S(=O)(=O)OCC/C(=C\[Si](C)(C)C)c2ccccc2)cc1	> 100	
COc1nc2c(c(O)c(C)c(=O)n2OC2OCC(OC(C)=O)C(OC(C)=O)C2OC(C)=O)c(=O)n1C (stereo not given)	> 100	
CCc1ccccc1NC(=O)c1cccc([N+](=O)[O-])c1O	> 100	
O=C(NC1C(=O)NNC1c1cccc([N+](=O)[O-])c1)c1ccccc1 (stereo not given)	> 100	
CC1=C(C(=O)Nc2ccccc2)C(c2ccc(N(C)C)cc2)C(C(=O)Nc2ccccc2)=C(C)N1	> 100	

system: DLD-1 colon; test: growth of human tumour cells (NCI), 48 h

Structure (SMILES)	TGI [µM]	GI50 [µM]
Cc1nc2ccccc2nc1CC(=O)C(=O)Nc1ccc(Cl)cc1Cl	> 100	
O=C1[C@@H]2C(c3c(Cl)cccc3Cl)=NO[C@@H]2C(=O)N1c1ccc(Cc2ccc(N3C(=O)[C@H]4C(c5c(Cl)cccc5Cl)=NO[C@H]4C3=O)cc2)cc1	> 100	
O=C1NC2=C(CCCCC/C2=N\O)C12CCCCCC2	> 100	
CCc1cccc(C)c1NC(=O)CCc1nc(=S)[nH][nH]1	> 100	
N#C/C(=C\c1cc(OCc2ccccc2)c(OCc2ccccc2)cn1)C(N)=O	> 100	
COC1N(C2CC(O)C(CO)O2)C(=O)NC(=O)C1(F)Br (stereo not given)	50	
N#CC(C(=O)C(=O)Nc1c(Cl)cccc1Cl)c1ccccc1 (stereo not given)	> 100	> 100
O=C(NC12CC3CCC1CC(C3)C2)[C@@H]1CCCN1C(=O)OCc1ccccc1 (stereo not given in full)	> 100	
O=C1NC(=O)c2c1n(Cc1ccccc1)c(=O)n2Cc1ccccc1	> 100	
Cc1nc(N)nc(CCC(=O)Nc2cccc(C(F)(F)F)c2)c1-c1ccc(Cl)cc1	> 100	
COc1cc([C@@H]2c3cc4c(cc3[C@@H](NC(=O)c3ccc(C#N)cc3)C3COC(=O)[C@@H]32)OCO4)cc(OC)c1O (stereo not given in full)	12	
O=[N+]([O-])c1cccc(C2=NN(c3ccccc3)C3c4cc(Br)ccc4OCC23)c1 (stereo not given)	> 100	
COc1cc2oc(-c3ccc(O)cc3)cc(=O)c2c(O)c1C1OC(CO)C(O)C(O)C1O (stereo not given)	> 100	
NNC(=O)C(=O)N/N=C1/CCCC1C(=O)CCC(=O)Nc1ccc(Cl)cc1 (stereo not given)	> 100	
COC(=O)CCC(NC(=S)N/N=C/c1cccs1)C(=O)OC (stereo not given)	> 100	
O=c1/c(=C/c2ccccc2[N+](=O)[O-])sc2nnc(-c3cccnc3)n12	> 100	
COC(=O)/C=C(/C(=O)OC)C1(C)c2cc(C(=O)OC)c(C(=O)OC)c(N)c2C(=N)N1c1ccccc1 (stereo not given)	29.4	
CCOC(=O)c1nc(C)oc1C(F)(F)F	> 100	
O=C1/C(=C\c2ccccc2)CN(C(=O)CCN2CCCCC2)C/C1=C/c1ccccc1	3.12	
Cc1ccc(S(=O)(=O)OCC/C(=C\[Si](C)(C)C)c2ccccc2)cc1	> 100	
COc1nc2c(c(O)c(C)c(=O)n2OC2OCC(OC(C)=O)C(OC(C)=O)C2OC(C)=O)c(=O)n1C (stereo not given)	> 100	
CCc1ccccc1NC(=O)c1cccc([N+](=O)[O-])c1O	> 100	
O=C(NC1C(=O)NNC1c1cccc([N+](=O)[O-])c1)c1ccccc1 (stereo not given)	> 100	
CC1=C(C(=O)Nc2ccccc2)C(c2ccc(N(C)C)cc2)C(C(=O)Nc2ccccc2)=C(C)N1	> 100	

system: SNB-78 CNS; test: growth of human tumour cells (NCI), 48 h

Structure (SMILES)	TGI [µM]	GI50 [µM]
Cc1nc2ccccc2nc1CC(=O)C(=O)Nc1ccc(Cl)cc1Cl	> 100	
COc1cc(Nc2cnc3ccc(C(F)(F)F)cc3n2)cc(OC)c1OC	> 100	
O=C1[C@@H]2C(c3c(Cl)cccc3Cl)=NO[C@@H]2C(=O)N1c1ccc(Cc2ccc(N3C(=O)[C@H]4C(c5c(Cl)cccc5Cl)=NO[C@H]4C3=O)cc2)cc1	> 100	
O=C1NC2=C(CCCCC/C2=N\O)C12CCCCCC2	> 100	
CCc1cccc(C)c1NC(=O)CCc1nc(=S)[nH][nH]1	> 100	
N#C/C(=C\c1cc(OCc2ccccc2)c(OCc2ccccc2)cn1)C(N)=O	> 100	
COC1N(C2CC(O)C(CO)O2)C(=O)NC(=O)C1(F)Br (stereo not given)	> 50	
N#CC(C(=O)C(=O)Nc1c(Cl)cccc1Cl)c1ccccc1 (stereo not given)	> 100	> 100
COC(=O)C1C(C(=O)OC)C2C(=O)C3C(C(=O)OC)C(C(=O)OC)C3C(=O)C12 (stereo not given)	> 100	
O=C(NC12CC3CCC1CC(C3)C2)[C@@H]1CCCN1C(=O)OCc1ccccc1 (stereo not given in full)	> 100	
O=C1NC(=O)c2c1n(Cc1ccccc1)c(=O)n2Cc1ccccc1	> 100	
Cc1nc(N)nc(CCC(=O)Nc2cccc(C(F)(F)F)c2)c1-c1ccc(Cl)cc1	> 100	
